Several values for one entry are separate records, joined by “and”; a condition that tells them apart may be missing. Equal values may be shown once.
How the values were obtained:
Format in all cases: in vivo, mouse
[1] = tested on: mice, CIBP model (NCTC 2472 cell inoculation); assay: CIBP model, limb use score; settings: for limb use score (Fig S7B): CIBP mice, individual animals; for effect on limb-use score: CIBP, female mice
Experimental: (§1) solution (0.05 mg/kg) injected s.c. 30 min before surgery (10 μL/g). For surgery, mice were anaesthetised with ketamine (100 mg/kg, i.p.) and xylazine (10 mg/kg, i.p.) (volume 10 µL/g) with 100 μL of 1% xylocaine solution infiltrated at the site of the incision. The distal trifurcation of the sciatic nerve was identified, and the tibial and common peroneal branches were ligated with polypropylene nonabsorbable 6-0 sutures (Ethicon) and 1 mm was cut out, leaving the sural branch intact. The wound was closed with sutures, and the animals were allowed to recover and returned to their cages. Two subcutaneous injections of buprenorphine (0.05 mg/kg) were performed with an 8 to 12 hours delay decreasing pain due to the surgery […]
(§2) The remaining SNI pain experiments were performed in-house using the following procedure.
(§3) SNI surgery was performed on the left hindleg of C57BL/6J male and female mice (Janvier, France) under 2% isoflurane anaesthesia. Skin on the lateral surface was incised between hip and knee followed by lengthwise division of the biceps femoris muscle leading to exposure of the three branches of the sciatic nerve. Sural branch was left intact, while the peroneal and tibial branches were ligated with a single surgical knot and axotomized distally of the ligation.
(§4) Wounds were closed with surgical glue or medical clips and animals were monitored daily for signs of stress or discomfort, but in all cases recovered uneventfully.
(§5) Induction of Diabetic neuropathy (STZ model).
(§6) Diabetes was induced by a single i.p. injection of […] streptozocin (STZ) solution (100 μL/10 g, Sigma-Aldrich S0130, batch #WXBB7152V) in male seven-week-old C57BL/6J (Charles River) mice. Glycemia was tested before, and seven days after injection. All injected mice had blood glucose concentration >350 mg/dL from day seven and were used for analgesic testing of the compounds from day 14. One mouse had to be euthanized at seven days post injection. This experiment was performed by Phenotype Expertise, Marseilles, France - Pain and CNS behaviour CRO under supervision of Stéphane Gaillard, PhD (CEO).
(§7) Induction of cancer induced bone pain (CIBP model).
(§8) Osteosarcoma cell line NCTC 2472 (American Type Culture Collection, CCL-11TM) was cultured for two weeks prior to surgery in NCTC-135 medium (Sigma-Aldrich, Denmark) supplemented with sodium hydrogen carbonate and 10% equine serum (Sigma-Aldrich, Denmark). On the day of surgery, cells were washed with PBS and incubated with 3 mL trypsin-EDTA for five min followed by centrifugation (2800 rpm, 3 min). Supernatant was removed, and cell pellet resuspended in PBS to obtain a cell density of 10^7 cells/mL.
(§9) Two separate cohorts of female C3H/HeNHsd mice (Envigo, Netherlands) of 7-8 weeks, were anaesthetized with 6.25 mg/kg xylazine (Rompun vet, 20 mg/mL, Bayer, KVP Pharma + Veterinär Produkte GmbH, Germany, Batch: KV02BHF) and 43.75 mg/kg ketamine (Ketaminol vet, 100 mg/mL, MSD Animal Health, AN Boxmeer, The Netherlands, Batch:
(§10) A140A01) and received 1.0-1.2% isoflurane (1000 mg/g isoflurane, Attane vet, ScanVet, Piramal Critical Care Ltd., UK, Batch: G123J18B) during surgery. The mouse was placed on a 37 °C heating pad. Both hind legs were shaved, and a small horizontal incision was made under the knee followed by a vertical incision of approximately 0.5 cm until the patellar tendon was exposed. The patellar tendon was moved to the lateral side exposing the distal epiphysis of the femur. A hole was made in the middle of the distal epiphysis by gently pushing a 30 G needle (0.3x12 mm, 30 Gx1/2”, Luer-Lock, CHIRANA T. Injecta, CH30012) through the bone while rotating. The position of the needle was confirmed by X-ray imaging (IVIS Lumina XR Apparatus, Caliper Life Sciences, Belgium). Following resuspension, 10 μL, corresponding to […]
(§11) […] NCTC 2472 cells or PBS (sham mice), was injected in the bone marrow cavity with an insulin syringe (1 mL Luer, BD PlastipakTM, 303172) attached to a 30 G needle and left in the […]
(§12) femur for one min. […]

[2] = tested on: mice, CIBP model (NCTC 2472 cell inoculation); assay: CIBP model, static weight bearing; settings: for static weight bearing (Fig S7C): CIBP mice, individual animals; for effect on weight-bearing ratio: CIBP, female mice
Experimental: as §1, §2, §3, §4, §5, §6, §7, §8, §9, §10, §11, §12

naive mice = assay: Capsaicin test (licking time); set-up: capsaicin-induced licking time, individual mice: unit not given here; settings: for capsaicin-induced licking time, individual mice: female and male; for effect on capsaicin-induced licking time: naive mice, both sexes
Experimental: Naïve wildtype male and female mice (10 weeks of age) were habituated to handling and experimental set up for one week prior to data collection. […]
Mice were pretreated with 10 μmol/kg mPD5, 10 mg/kg morphine (RH Pharmacy, Denmark, Vnr. 475249), or PBS 45 min before habituation to observation container (glass cylinder surrounded by mirrors on 2 sides) for 15 min. Mice then received an intraplantar injection of 20 µl capsaicin (1.6 ug/paw) (sigma CAS Number:404-86-4, diluted with 1:1:8 solution of tween-20, 70% ethanol, and MilliQ water) in one hind paw and were reintroduced to the observation container. Mice were recorded for three min after i.pl. injection with capsaicin and euthanized the same day. Mice were scored manually for the amount of time spent paw licking within three min after capsaicin administration. […]
Females were weighed on a regular basis from removal of the males […]
Unless otherwise stated, all data were analysed using GraphPad Prism 9.4.1. and presented as mean +-SEM with the significance level set to p < 0.05. For locomotion and elevated plus maze, Ethovision XT 13 (Noldus) was used to track the distance travelled by each animal. For within group analysis (i.e., von Frey experiments), two-way ANOVA followed by Dunnett’s post hoc test was used. For between group analysis of multiple time points (i.e., locomotion experiments), two-way ANOVA was used without post hoc test due to lack of treatment significance in the ANOVA test. For the limb use experiment, data pre versus post treatment was analysed with a Kruskal Wallis test due to the non-parametric nature of the data. When analysing histograms of three groups or more (i.e., marble burying and elevated plus maze),

[3] = tested on: mice, CIBP model (NCTC 2472 cell inoculation); assay: Cancer-induced bone pain (CIBP) model, von Frey; settings: for effect on PWT: CIBP, female mice
Experimental: as §1, §2, §3, §4, §5, §6, §7, §8, §9, §10, §11, §12

SMILES: CN1CC[C@]23c4c5ccc(O)c4O[C@H]2[C@@H](O)C=C[C@H]3[C@H]1C5 [morphine]
- limb use score (Fig S7B) ([1]; BL1): 4
- limb use score (Fig S7B) ([1]; BL2): 4
- limb use score (Fig S7B) ([1]; Post (after treatment)): 3 (3×) and 1 (2×) and 2 (4×) and 0
- limb use score (Fig S7B) ([1]; Pre (before treatment)): 2 (3×) and 1 (5×) and 0 (2×)
- effect on limb-use score ([1]; s.c. 5 mg/kg): partial but significant increase
- static weight bearing (Fig S7C) ([2]; BL1): 50.01 and 50.76 and 43.99 and 53.97 and 55.19 and 55.68 and 51.81 and 54.18 and 46.08 and 56.67
- static weight bearing (Fig S7C) ([2]; BL2): 47.61 and 46.15 and 51.95 and 48.94 and 50.73 and 54.51 and 47.91 and 45.61 and 50.32 and 52.04
- static weight bearing (Fig S7C) ([2]; Post (after treatment)): 30.29 and 34.04 and 29.99 and 42.43 and 37.09 and 45.12 and 35.66 and 34.06 and 42.67 and 36.03
- static weight bearing (Fig S7C) ([2]; Pre (before treatment)): 24.27 and 31.25 and 36.25 and 30.33 and 34.01 and 33.28 and 32.53 and 29.97 and 30.04 and 32.35
- effect on weight-bearing ratio ([2]; s.c. 5 mg/kg): partial but significant increase
- capsaicin-induced licking time, individual mice (naive mice; 10 mg/kg): 0
- effect on capsaicin-induced licking time (naive mice; s.c. 10 mg/kg): significantly reduced the licking time
- von Frey paw withdrawal threshold, individual animals (Fig 4C) ([3]; BL1 (baseline 1)): 1.5 and 0.8 and 0.6 and 1 (2×) and 0.9 and 1.3 and 2 and 1.7 and 1.2
- von Frey paw withdrawal threshold, individual animals (Fig 4C) ([3]; BL2 (baseline 2)): 2.9 and 1.1 and 0.8 and 2.6 and 1.3 (2×) and 1.9 and 2.1 (2×) and 1.2
- effect on PWT ([3]; s.c. 5 mg/kg): partial but significant increase
- von Frey paw withdrawal threshold, individual animals (Fig 4C) ([3]; Post (after treatment)): 1.1 (2×) and 1 (2×) and 1.2 (3×) and 0.9 and 1.3 (2×)
- von Frey paw withdrawal threshold, individual animals (Fig 4C) ([3]; Pre (before treatment)): 0.6 (2×) and 0.2 (3×) and 0.4 (3×) and 0.5 and 0.3

SMILES: CCCCCCCCCCCCCC(=O)N(CCOCCOCCC(=O)N[C@@H](Cc1c[nH]cn1)C(=O)N[C@@H](Cc1c[nH]c2ccccc12)C(=O)N[C@@H](CC(C)C)C(=O)N[C@@H](CCCCN)C(=O)N[C@H](C(=O)O)C(C)C)CCOCCOCCC(=O)N[C@@H](Cc1c[nH]cn1)C(=O)N[C@@H](Cc1c[nH]c2ccccc12)C(=O)N[C@@H](CC(C)C)C(=O)N[C@@H](CCCCN)C(=O)N[C@H](C(=O)O)C(C)C [mPD5, myristoyl-NPEG4-(HWLKV)2]
- effect on limb-use score ([1]; s.c. 10 μmol/kg): no effect
- effect on weight-bearing ratio ([2]; s.c. 10 μmol/kg): no effect
- capsaicin-induced licking time, individual mice (naive mice; 10 umol/kg, female mice): 12.96 and 9.28 and 8.67 and 18.61
- capsaicin-induced licking time, individual mice (naive mice; 10 umol/kg, male mice): 12.98 and 14.19 and 30.63
- effect on capsaicin-induced licking time (naive mice; s.c. 10 μmol/kg): no effect on time spent licking
- effect on PWT ([3]; s.c. 10 μmol/kg): no effect

— publication PMC11530130, “Peripherally restricted PICK1 inhibitor mPD5 ameliorates pain behaviors in murine inflammatory and neuropathic pain models” (JCI Insight, 2024)
